The record followed here is patent US20250092039A1, “GLUTARIMIDE-CONTAINING PAN-KRAS-MUTANT DEGRADER COMPOUNDS AND USES THEREOF” (Tiger Biotherapeutics Inc., priority 2022, published 2025).

The target in data set [1] is KRAS-G12V/RAF1 (Homo sapiens (Human), UniProt P01116, G12V). The experiment in a line: KRAS/RAF1 binding inhibition assay (AlphaScreen). The essentials: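 IC50 comes from variable-slope nonlinear fits of % inhibition (relative to DMSO) against inhibitor concentration. The AlphaScreen signal tracks the interaction of GppNHp-bound KRAS G12V with the RAF1 RBD after 60 min at 4° C with compound in 2% DMSO final.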
(In Alpha technology, singlet oxygen from a donor bead excites a nearby acceptor bead.)

The target of data set [2] is KRAS G12V (Homo sapiens (Human), UniProt P01116, G12V). The experiment in a line: KRAS G12V degradation in SW620 cells (Western blot, DC50). It is filed as cell-based. The note with it: 24 hours. The essentials:
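KRAS levels were quantified by fluorescent Western blot as percent of the DMSO control after 24 h of compound exposure at 37° C in homozygous KRAS G12V SW620 cells. A four-parameter variable-slope fit of the dose-response gave the half-maximal degradation concentration.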

Data set [3] has as its system SW620 cells. The data set is described as follows: 3D cell growth inhibition of SW620 cells carrying endogenous KRAS G12V mutation (CellTiter-Glo 3D, GI50). The note with it: Homo sapiens, SW-620, 144 h; SW620 cells, 6 days; read-out: SW620 3D cell growth GI50. It is filed as cell-based. Put shortly: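 […], compound exposure lasted 6 days at 37° C, added the day after plating from DMSO stocks over a concentration range. Cells: SW620, KRAS G12V, 3D culture.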

Data set [4] in a line: Pharmacokinetics following single intravenous and oral gavage dosing (AUC0-24h). The note with it: mouse, plasma; single oral dose 30 mg/Kg, male CD-1 mice. In kind it is in vivo. The procedure:
Compounds disclosed herein were studied for animal tolerability and pharmacokinetics following single intravenous (iv) and oral gavage (po) dosing to male CD-1 mice. For each compound in each dosing route, 3 mice were used with iv dosing volume of 5 mL/kg and po dosing volume of 10 mL/kg. The compounds were formulated in 10% DMSO, 30% PEG400, 60% aqueous solution containing 20% 2-hydroxypropyl-β-cyclodextrin. Blood sampling time points for iv dosing were 0.083, 0.25, 0.5, 1, 2, 4, 8 and 24 h. The sampling time points for po dosing were 0.25, 0.5, 1, 2, 4, 6, 8 and 24 h. Mice activities were monitored and recorded immediately following the dosing. The prepared plasma samples were analyzed using LC/MS/MS on AB Sciex Triple Quad 5500+ system. The PK parameters were determined by non-compartmental analysis using WinNonlin (Version 8.0).

pIC50: −log10 of the molar value.

One may read the pIC50 as −log10 of the IC50, conventionally taken in molar units. A lower pIC50 goes with a high IC50. What is called DC50 is the concentration giving 50% degradation. Higher therefore signals degradation only at high concentration. Usually GI50 stands for the concentration at which growth is held to half of that of the control. Usually AUC(0-t) stands for the area under the concentration-time curve up to a stated or last time point. Low values mean low exposure, high ones high exposure.

Sequence of KRAS-G12V/RAF1 (P01116-2 other isoform, or with tags, fused parts or gaps G12V): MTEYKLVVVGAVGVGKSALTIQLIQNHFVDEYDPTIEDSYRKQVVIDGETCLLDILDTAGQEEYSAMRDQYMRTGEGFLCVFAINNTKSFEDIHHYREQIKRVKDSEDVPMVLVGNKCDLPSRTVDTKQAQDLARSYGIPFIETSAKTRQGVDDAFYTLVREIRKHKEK
Sequence of KRAS G12V (P01116-2 other isoform, or with tags, fused parts or gaps G12V): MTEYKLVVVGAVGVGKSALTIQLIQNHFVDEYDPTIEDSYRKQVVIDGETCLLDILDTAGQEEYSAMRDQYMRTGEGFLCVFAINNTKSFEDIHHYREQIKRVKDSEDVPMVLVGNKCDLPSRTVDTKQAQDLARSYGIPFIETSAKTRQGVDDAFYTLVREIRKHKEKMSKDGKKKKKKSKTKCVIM

Regarding `CCc1c(F)ccc2cc(O)cc(-c3ncc4c(N5CCC[C@@](C)(O)C5)nc(OCC5(CN6CCC(C)(CN7CCN(c8ccc9c(c8)CN([C@H]8CCC(=O)NC8=O)C9=O)CC7)CC6)CC5)nc4c3F)c12` [Compound 12, (S)-3-(5-(4-((1-((1-(((7-(8-ethyl-7-fluoro-3-hydroxynaphthalen-1-yl)-8-fluoro-4-((R)-3-hydroxy-3-methylpiperidin-1-yl)pyrido[4,3-d]pyrimidin-2-yl)oxy)methyl)cyclopropyl)methyl)-4-methylpiperidin-4-yl)methyl)piperazin-1-yl)-1-oxoisoindolin-2-yl)piperidine-2,6-dione], the pIC50 in data set [1] is 6.70 to 7.70. The DC50 in data set [2] is less than 1 nM. The GI50 in data set [3] was less than 10 nM. Further, in data set [4], the AUC(0-t) came out at 3250 ng·h/mL.

`CCc1c(F)ccc2cc(O)cc(-c3ncc4c(N5CCC[C@@](C)(O)C5)nc(OCC5(CN6CCC7(CC6)CC(N6CCN(c8cc(F)c(C9CCC(=O)NC9=O)c(F)c8)CC6)C7)CC5)nc4c3F)c12` (stereo partly drawn) [Compound 50, 3-(4-(4-(7-((1-(((7-(8-ethyl-7-fluoro-3-hydroxynaphthalen-1-yl)-8-fluoro-4-((R)-3-hydroxy-3-methylpiperidin-1-yl)pyrido[4,3-d]pyrimidin-2-yl)oxy)methyl)cyclopropyl)methyl)-7-azaspiro[3.5]nonan-2-yl)piperazin-1-yl)-2,6-difluorophenyl)piperidine-2,6-dione]: the pIC50 in data set [1] was 6.70 to 7.70. In addition, the DC50 in data set [2] was less than 1 nM. The GI50 in data set [3] is less than 10 nM. This compound showed an AUC(0-t) in data set [4] of 3900 ng·h/mL.

Take `CCc1c(F)ccc2cc(O)cc(-c3ncc4c(N5CCC[C@]6(CCO6)C5)nc(OCC5(CN6CCC7(CC6)CC(F)(CN6CCN(c8cc(F)c(C9CCC(=O)NC9=O)c(F)c8)CC6)C7)CC5)nc4c3F)c12` (stereo partly drawn) [Compound 215, 3-(4-(4-((7-((1-(((7-(8-ethyl-7-fluoro-3-hydroxynaphthalen-1-yl)-8-fluoro-4-((S)-1-oxa-6-azaspiro[3.5]nonan-6-yl)pyrido[4,3-d]pyrimidin-2-yl)oxy)methyl)cyclopropyl)methyl)-2-fluoro-7-azaspiro[3.5]nonan-2-yl)methyl)piperazin-1-yl)-2,6-difluorophenyl)piperidine-2,6-dione]: the pIC50 in data set [1] was 6.70 to 7.70. In data set [2], this compound gave a DC50 of less than 1 nM. Further, in data set [3], the GI50 was less than 10 nM. The compound also yielded an AUC(0-t) in data set [4] of 4710 ng·h/mL.

In turn, `CCc1c(F)ccc2cc(O)cc(-c3ncc4c(N5CCC[C@@](C)(O)C5)nc(OCC5(CN6CCC(F)(CN7CCN(c8cccc9c8n(C)c(=O)n9C8CCC(=O)NC8=O)CC7)CC6)CC5)nc4c3F)c12` (stereo partly drawn) [Compound 65, 3-(4-(4-((1-((1-(((7-(8-ethyl-7-fluoro-3-hydroxynaphthalen-1-yl)-8-fluoro-4-((R)-3-hydroxy-3-methylpiperidin-1-yl)pyrido[4,3-d]pyrimidin-2-yl)oxy)methyl)cyclopropyl)methyl)-4-fluoropiperidin-4-yl)methyl)piperazin-1-yl)-3-methyl-2-oxo-2,3-dihydro-1H-benzo[d]imidazol-1-yl)piperidine-2,6-dione] had an AUC(0-t) in data set [4] of 10700 ng·h/mL.

In turn, `CCc1c(F)ccc2cc(O)cc(-c3ncc4c(N5CCC[C@@](C)(O)C5)nc(OCC5(CN6CCC(CN7CCN(c8ccc9c(c8)CN([C@H]8CCC(=O)NC8=O)C9=O)CC7)CC6)CC5)nc4c3F)c12` [Compound 1, (S)-3-(5-(4-((1-((1-(((7-(8-ethyl-7-fluoro-3-hydroxynaphthalen-1-yl)-8-fluoro-4-((R)-3-hydroxy-3-methylpiperidin-1-yl)pyrido[4,3-d]pyrimidin-2-yl)oxy)methyl)cyclopropyl)methyl)piperidin-4-yl)methyl)piperazin-1-yl)-1-oxoisoindolin-2-yl)piperidine-2,6-dione] registered an AUC(0-t) in data set [4] of 220 ng·h/mL.

Regarding `CCc1c(F)ccc2cc(O)cc(-c3ncc4c(N5CCCC6(CCO6)C5)nc(OCC5(CN6CCC(CN7CCC(N8CCN(c9ccc%10c(c9)CN([C@H]9CCC(=O)NC9=O)C%10=O)CC8)CC7)CC6)CC5)nc4c3F)c12` (stereo partly drawn) [Compound 38, (3S)-3-(5-(4-(1-((1-((1-(((7-(8-ethyl-7-fluoro-3-hydroxynaphthalen-1-yl)-8-fluoro-4-(1-oxa-6-azaspiro[3.5]nonan-6-yl)pyrido[4,3-d]pyrimidin-2-yl)oxy)methyl)cyclopropyl)methyl)piperidin-4-yl)methyl)piperidin-4-yl)piperazin-1-yl)-1-oxoisoindolin-2-yl)piperidine-2,6-dione], the DC50 in data set [2] was in the range of 1 to 10 nM. Also, in data set [3], the GI50 is less than 10 nM. For the same compound, in data set [4], the AUC(0-t) amounted to 170 ng·h/mL.

`CCc1c(F)ccc2cc(O)cc(-c3ncc4c(N5CCCC6(CCO6)C5)nc(OCC5(CN6CCC(CN7CCN(c8ccc9c(c8)CN([C@H]8CCC(=O)NC8=O)C9=O)CC7)CC6)CC5)nc4c3F)c12` (stereo partly drawn) [Compound 23, (3S)-3-(5-(4-((1-((1-(((7-(8-ethyl-7-fluoro-3-hydroxynaphthalen-1-yl)-8-fluoro-4-(1-oxa-6-azaspiro[3.5]nonan-6-yl)pyrido[4,3-d]pyrimidin-2-yl)oxy)methyl)cyclopropyl)methyl)piperidin-4-yl)methyl)piperazin-1-yl)-1-oxoisoindolin-2-yl)piperidine-2,6-dione] had a negative logarithm of the IC50 (pIC50) in data set [1] of 6.70 to 7.70. Moreover, the concentration for 50% growth inhibition (GI50) in data set [3] was less than 10 nM. Also, the AUC(0-t) in data set [4] worked out at 783 ng·h/mL.

In turn, `CCc1c(F)ccc2cc(O)cc(-c3ncc4c(N5CCC[C@@](C)(O)C5)nc(OCC5(CN6CCC(F)(CN7CCN(c8ccc(C9CCC(=O)NC9=O)c(F)c8)CC7)CC6)CC5)nc4c3F)c12` (stereo partly drawn) [Compound 84, 3-(4-(4-((1-((1-(((7-(8-ethyl-7-fluoro-3-hydroxynaphthalen-1-yl)-8-fluoro-4-((R)-3-hydroxy-3-methylpiperidin-1-yl)pyrido[4,3-d]pyrimidin-2-yl)oxy)methyl)cyclopropyl)methyl)-4-fluoropiperidin-4-yl)methyl)piperazin-1-yl)-2-fluorophenyl)piperidine-2,6-dione] displayed an AUC(0-t) in data set [4] of 11900 ng·h/mL.

As for `CCc1c(F)ccc2cc(O)cc(-c3ncc4c(N5CCC[C@@](C)(O)C5)nc(OCC5(CN6CCC7(CC6)CC(F)(CN6CCN(c8cc(F)c(C9CCC(=O)NC9=O)c(F)c8)CC6)C7)CC5)nc4c3F)c12` (stereo partly drawn) [Compound 46, 3-(4-(4-((7-((1-(((7-(8-ethyl-7-fluoro-3-hydroxynaphthalen-1-yl)-8-fluoro-4-((R)-3-hydroxy-3-methylpiperidin-1-yl)pyrido[4,3-d]pyrimidin-2-yl)oxy)methyl)cyclopropyl)methyl)-2-fluoro-7-azaspiro[3.5]nonan-2-yl)methyl)piperazin-1-yl)-2,6-difluorophenyl)piperidine-2,6-dione], the DC50 in data set [2] was in the range of 1 to 10 nM. The GI50 in data set [3] is less than 10 nM. For the same compound, the AUC(0-t) in data set [4] amounted to 9130 ng·h/mL.

As for `CCc1c(F)ccc2cc(O)cc(-c3ncc4c(N5CCC[C@@](C)(O)C5)nc(OCC5(CN6CCC(F)(CN7CCN(c8ccc9c(C%10CCC(=O)NC%10=O)nn(C)c9c8)CC7)CC6)CC5)nc4c3F)c12` (stereo partly drawn) [Compound 66, 3-(6-(4-((1-((1-(((7-(8-ethyl-7-fluoro-3-hydroxynaphthalen-1-yl)-8-fluoro-4-((R)-3-hydroxy-3-methylpiperidin-1-yl)pyrido[4,3-d]pyrimidin-2-yl)oxy)methyl)cyclopropyl)methyl)-4-fluoropiperidin-4-yl)methyl)piperazin-1-yl)-1-methyl-1H-indazol-3-yl)piperidine-2,6-dione], the AUC(0-t) in data set [4] was determined as 7420 ng·h/mL.

Regarding `CCc1c(F)ccc2cc(O)cc(-c3ncc4c(N5CCC[C@@](C)(O)C5)nc(OCC5(CN6CC(CN7CCC(N8CCN(c9ccc%10c(c9)CN([C@H]9CCC(=O)NC9=O)C%10=O)CC8)CC7)C6)CC5)nc4c3F)c12` [Compound 149, (S)-3-(5-(4-(1-((1-((1-(((7-(8-ethyl-7-fluoro-3-hydroxynaphthalen-1-yl)-8-fluoro-4-((R)-3-hydroxy-3-methylpiperidin-1-yl)pyrido[4,3-d]pyrimidin-2-yl)oxy)methyl)cyclopropyl)methyl)azetidin-3-yl)methyl)piperidin-4-yl)piperazin-1-yl)-1-oxoisoindolin-2-yl)piperidine-2,6-dione], the pIC50 in data set [1] was 6.70 to 7.70. Also, the DC50 in data set [2] was greater than 100 nM. For the same compound, in data set [3], the GI50 was 10 to 100 nM.

Regarding `CCc1cccc2cc(O)cc(-c3ncc4c(N5CCC[C@@](C)(O)C5)nc(OCC5(CN6CC7(CCC(N8CCN(c9ccc%10c(c9)CN([C@H]9CCC(=O)NC9=O)C%10=O)CC8)CC7)C6)CC5)nc4c3F)c12` [Compound 141, (S)-3-(5-(4-(2-((1-(((7-(8-ethyl-3-hydroxynaphthalen-1-yl)-8-fluoro-4-((R)-3-hydroxy-3-methylpiperidin-1-yl)pyrido[4,3-d]pyrimidin-2-yl)oxy)methyl)cyclopropyl)methyl)-2-azaspiro[3.5]nonan-7-yl)piperazin-1-yl)-1-oxoisoindolin-2-yl)piperidine-2,6-dione], the negative logarithm of the IC50 (pIC50) in data set [1] is greater than 7.70. In addition, in data set [2], the DC50 is greater than 100 nM. Besides, the GI50 in data set [3] is greater than 100 nM.
